Assay results taken from the NIST ThermoML archive (doi:10.1021/je030127e).
Numbers after ± are expanded uncertainties.

Experiments:
[1] = 101.3 kPa, Liquid; for viscosity: Capillary tube (Ostwald / Ubbelohde) method
[2] = xn = mol fraction of the nth substance listed; conditions: 101.3 kPa, Liquid, x1 = 1; for viscosity: Capillary tube (Ostwald / Ubbelohde) method

| Structure (SMILES) | viscosity ([1]; 293.15 K) | speed of sound ([1]; 298.15 K) | viscosity ([1]; 298.15 K) | viscosity ([1]; 303.15 K) | viscosity ([2]; 293.15 K) | viscosity ([2]; 298.15 K) | speed of sound ([2]; 298.15 K) | viscosity ([2]; 303.15 K) |
| --- | --- | --- | --- | --- | --- | --- | --- | --- |
| CCCCN [1-butanamine] | 0.525 ± 0.005 mPa·s | 1251.6 ± 1.1 m/s | 0.496 ± 0.005 mPa·s | 0.467 ± 0.005 mPa·s | – | – | – | – |
| COCCO [2-methoxyethan-1-ol] | 1.708 ± 0.013 mPa·s | 1344.5 ± 1.1 m/s | 1.544 ± 0.012 mPa·s | 1.404 ± 0.011 mPa·s | – | – | – | – |
| COCCO [2-methoxyethan-1-ol] + CCCCN | – | – | – | – | 1.708 ± 0.013 mPa·s | 1.544 ± 0.012 mPa·s | 1344.5 ± 1.1 m/s | 1.404 ± 0.011 mPa·s |
